PMC3996484, “Apoptosis Therapy in Cancer: The First Single-molecule Co-activating p53 and the Translocator Protein in Glioblastoma” (Scientific Reports, 2014)
Like-named read-outs stand apart in the source and are kept apart here.

Columns and labels:
U87MG cells [1] = assay: Δψm dissipation in intact cells (JC-1, mitochondria isolated after cell treatment); settings: for Δψm dissipation vs control: intact cells, 5 μM, 24 h; for Δψm dissipation: 10 μM, 24 h of cell treatment
U87MG cells [2] = assay: Annexin V and 7-AAD staining (apoptosis); type: cell-based, human
Procedure: Dual staining with Annexin V coniugated to fluorescein-isothiocyanate (FITC) and 7-amino-actinomysin (7-AAD) was performed using the commercially available kit (Muse Annexin V and Dead Cell Kit; Merck KGaA, Darmstadt, Germany). […] Both floating and adherent cells were collected, centrifuged at 300 × g for 5 minutes and suspended in cell culture medium. Then, a 100 μl aliquot of cell suspension (about 5 × 10^4 cell/ml) was added to 100 μl of fluorescent reagent and incubated for 10 minutes at room temperature. After incubation, the percentages of living, apoptotic and dead cells were acquired and analyzed by Muse™ Cell Analyzer in accordance to the manufacture's guidelines. In cells undergoing apoptosis, annexin V binds to phosphatidylserine, which translocates to the outer leaflet of the cytoplasmatic membrane. Double staining is used to distinguish between viable, early apoptotic, and necrotic or late apoptotic cells. Annexin V:FITC […] cells were identified as early apoptotic. Cells which were Annexin V-FITC positive and 7-AAD positive were identified as cells in late apoptosis or necrotic.

[3] = Precipitation in NMR sample; type: physicochemical; settings: added from DMSO stock, 20 mM TrisHCl, 150 mM KCl, pH 7.4
Procedure: NMR spectra were acquired at 25°C on a Varian Unity INOVA 700 MHz spectrometer equipped with a cryoprobe. NMR samples contained 0.1 mM of proteins in 20 mM TrisHCl, 150 mM KCl, pH 7.4, 5 mM β-mercaptoethanol, 0.02% NaN3. Water suppression was carried out by gradient echo[39]. NMR data were processed using the Bruker program BioSpin 3.0. For NMR ligand binding experiments, 300 μL of the protein sample containing 10% D2O, at a concentration of about 0.1 mM, and a 10 mM stock solution of compounds 7 and 1 in DMSO-d6 were used. The formal final molar ratio protein:inhibitor was 1:2.

[4] = system: mitochondria isolated from the human GBM cell line U87MG; assay: Δψm dissipation in isolated mitochondria (JC-1); type: biochemical; settings: isolated treated mitochondria, 5 μM, 15 min
Procedure: (§1) Figure 3 New synthesized compounds bind to TSPO and induce Δψm collapse. (A) [^3H]PK11195 radioligand binding: membranes homogenates obtained from kidney (20 μg of proteins) were incubated with 0.6 nM [^3H]PK11195 and different compounds concentration. Reaching equilibrium, samples were filtered and bound radioactivity was counted. […] (B) Evaluation of Δψm in isolated mitochondria: Mitochondria (5 μg of proteins) were treated with compound 1 (5 μM), or compound 7 (5 μM), or DMSO (control) for 15 min. […] Each experiment was performed in duplicate.
Several evidences have shown that TSPO is a constituent of the MPTP, taking therefore part in dissipation of Δψm that occurs after MPTP opening, as well as in the release of proapoptotic inter-membrane proteins and in the induction of apoptosis. To assess whether compounds 1 and 7 could modulate MPT-pore opening through their selective binding to TSPO, Δψm was measured in mitochondria isolated from the human GBM cell line U87MG.

[5] = system: p53 target genes (MDM2, p21, PUMA) in U87MG cells; assay: Relative mRNA quantification of p53 target genes (real-time RT-PCR); type: cell-based, human; settings: for mRNA levels of p53 target genes (MDM2 and p21): 5 μM
Procedure: The assessment of p53 target gene mRNA levels was performed by real-time reverse transcription polymerase chain reaction (real-time RT-PCR)[16]. In brief, total RNA was extracted from control cells as well as from cells treated with compounds (5 μM) for different hours, using Rneasy® Mini Kit (Qiagen, Hilden, Germany) according to manufacturer's instructions. Purity of the RNA samples was determined by measuring the absorbance at 260:280 nm. cDNA synthesis was performed with 500 ng of RNA using i-Script cDNA synthesis kit (BioRad, Hercules, USA) following manufacturer's instructions. […] RT-PCR reactions consisted of 25 μL Fluocycle® II SYBR® (Euroclone, Milano, Italy), 1.5 μL of both 10 μM forward and reverse primers, 3 μL cDNA, and 19 μL of H2O. All reactions were performed for 40 cycles using 55°C as annealing temperature. The p53 target gene mRNA levels for each sample were normalized against β-actin mRNA levels, and relative expression was calculated by using Ct value. PCR specificity was verified by both the melting curve analysis and gel electrophoresis.

TSPO = target: T1, TSPO (Rattus norvegicus, UniProt P16257); assay: Competitive [3H]PK11195 radioligand binding assay; settings: membrane homogenates from kidney, 0.6 nM [3H]PK11195; read-out: Ki, displacement of specific [3H]PK11195 binding
T1 construct: membranes homogenates obtained from kidney (20 μg of proteins) were incubated with 0.6 nM; from tissue; host or cells: kidney (crude mitochondrial membranes)
Procedure: as §1
Binding studies were performed as previously described. Briefly, crude mitochondrial membranes, in 50 mM Tris-HCl pH 7.4 buffer, were incubated with 0.6 nM [^3H]PK 11195 in the presence of new synthesized compounds (0.1 nM–10 μM) in a final volume of 0.5 ml for 90 min at 4°C. Incubations were terminated by rapid filtration through GF/C glass fiber filters and washed three times with 4 ml of cold buffer. The radioactivity was measured by liquid scintillation counter. Non-specific binding was estimated in the presence of unlabeled 1 μM PK 11195. IC50 value was determined using Graph-Pad Prism computer program (Graph Pad Software, version 5.0; San Diego, CA).

U87MG cells [6] = assay: Cell viability, Trypan blue exclusion assay; type: cell-based, human
Procedure: Each experiment was performed in duplicate. […] Each experiment was performed in duplicate.
The effects of compound treatment on U87MG cell viability were evaluated by Trypan blue exclusion assays. Briefly harvested cells were mixed with an equal volume of 0.4% trypan blue dye. For quantization of cell viability, blue and bright cells were counted, and viability was calculated as the percentage of live (bright) cells versus control set to 100%. U87MG cells were treated with different concentrations (10 nM–10 μM) of each compound and after 24 h of incubation viable cells were counted.

[7] = system: p53 protein levels in U87MG cells; assay: p53 protein levels by Western blot; type: cell-based, human; settings: 8 h incubation
Procedure: Figure 6 New synthesized compounds induce p53 protein accumulation by dissociation of MDM2/p53 complex and stimulate transcription of p53 target genes in U87MG cells. […] Lysates were subjected to Western blot analysis using antibody to p53 (FL-393; Santa Cruz Biotechnology). […] The MDM2/p53 complex and the relative input of the proteins were detected by immunoblot. One representative Western blot is presented (left panel). […] (D) Relative mRNA quantification of p53 target genes: The relative mRNA quantification of p53 target genes (p21 and MDM2) was performed by real-time RT-PCR as describe in Methods. […] Each experiment was performed in duplicate.
The western blot analysis for the evaluation of p53 protein levels was performed as previously described. […] 30 μg of each sample was then resolved by SDS-PAGE (8.5%), transferred to PVDF membranes and probed overnight at 4°C with primary antibody anti-p53 (FL-393; Santa Cruz Biotechnology; 1:500). The primary antibody was detected using anti-rabbit IgG light chains conjugated to peroxidase (diluted 1:10.000). The peroxidase was detected using a chemioluminescent substrate (ECL, Perkin Elmer). Densitometric analysis of immunoreactive bands was performed using Image J Software.

U87MG cells [8] = assay: Senescence marker SA-β-Gal; type: cell-based, human; settings: 5 μM, 24 h
Text: The senescence marker SA-β-Gal was detected as previously described[16] and cells were then washed in PBS (1×) and photographed at 100× magnification. Images of random light microscopic fields were captured (5 fields per well), and both blue and total cells were counted using ImageJ (ImageJ Software, version 1.41; USA).

[9] = target: T2, native human MDM2/p53 complex (Homo sapiens, UniProt Q00987); assay: ELISA-based dissociation of native MDM2/p53 complex in U87MG cell lysates; type: biochemical
T2 construct: U87MG cell lysates, containing the native MDM2/p53 complex; endogenous in cells; host or cells: U87MG human glioblastoma cells
Procedure: After extensive washes, levels of the MDM2/p53 complex were quantified using an antibody specific for p53, and subsequently an HRP-conjugated antibody and a TMB substrate kit. (C), (D) U87MG cell lysates, containing the native MDM2/p53 complex, were pre-incubated with DMSO (control) or different concentrations of the indicated compounds. Then, lysates were captured on wells pre-coated with MDM2 antibody. After extensive washes, levels of the MDM2/p53 complex were quantified using an antibody specific for p53, and subsequently an HRP-conjugated antibody and a TMB substrate kit. Blank wells were obtained in the absence of p53 antibody. Data are expressed as absorbance at 450 nm minus blank values (A), (B), or as % of control set to 100% (C), (D), and represent the mean ± SEM of at least three independent experiments.
To test the ability of new compound to dissociate the native MDM2/p53 complex, a quantitative sandwich immune-enzymatic assay, on crude cell lysates obtained from U87 MG cells was developed. […] The TMB substrate kit (Thermo Fisher Scientific) allowed a colorimetric quantification of the MDM2/p53 complex. […] Absorbance's values at 450 nm were measured, background subtracted and sigmoid dose-response curves were generated using Graph Pad Prism 4 software, from which IC50 values of MDM2/p53 complex were derived.

[10] = target: T3, recombinant human MDM2/p53 complex (Homo sapiens, UniProt Q00987); assay: NMR dissociation (AIDA) of recombinant MDM2/p53 complex; type: binding; settings: 0.2 mM formal final concentration, complex 0.1 mM
T3 construct: N-terminal region of MDM2 (residues 1–118); His-tag; made in house; host or cells: Escherichia coli BL21(DE3) RIL
T3 sequence (Q00987 1-118, one chain of several): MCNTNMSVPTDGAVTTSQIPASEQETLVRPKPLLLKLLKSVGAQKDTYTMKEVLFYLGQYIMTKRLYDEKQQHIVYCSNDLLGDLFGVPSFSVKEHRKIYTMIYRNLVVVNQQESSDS
Text: The method, named AIDA (for Antagonist Induced Dissociation Assay[26][27]), can work with complex made by a large protein fragment (larger than 30 kDa) and a small reporter protein (less than 20 kDa). AIDA makes use of two-dimensional^15N-HSQC spectra, however, in the presence of flexible protein residues, 1D proton NMR spectra may be sufficient for monitoring the states of the complex upon addition of ligands. Since the N-terminal domain of p53 is highly flexible, MDM2/p53 complex is suitable for 1D proton NMR application[26][28][29]. Particularly, the signals from ^NH^ε side chains of W23 and W53 are sharp in the free p53 1D proton spectrum. After the complex formation, W23 signal disappears, since W23 comprises the primary binding site for MDM2. In fact, residues 17–26 of p53 participate in well-defined structures of large MDM2/p53 complexes. In contrast, W53 is still not structured when p53 binds MDM2[26].
NMR spectra were acquired at 25°C on a Varian Unity INOVA 700 MHz spectrometer equipped with a cryoprobe. […] Water suppression was carried out by gradient echo[39]. NMR data were processed using the Bruker program BioSpin 3.0.

T2 sequence (Q00987 whole entry, one chain of several): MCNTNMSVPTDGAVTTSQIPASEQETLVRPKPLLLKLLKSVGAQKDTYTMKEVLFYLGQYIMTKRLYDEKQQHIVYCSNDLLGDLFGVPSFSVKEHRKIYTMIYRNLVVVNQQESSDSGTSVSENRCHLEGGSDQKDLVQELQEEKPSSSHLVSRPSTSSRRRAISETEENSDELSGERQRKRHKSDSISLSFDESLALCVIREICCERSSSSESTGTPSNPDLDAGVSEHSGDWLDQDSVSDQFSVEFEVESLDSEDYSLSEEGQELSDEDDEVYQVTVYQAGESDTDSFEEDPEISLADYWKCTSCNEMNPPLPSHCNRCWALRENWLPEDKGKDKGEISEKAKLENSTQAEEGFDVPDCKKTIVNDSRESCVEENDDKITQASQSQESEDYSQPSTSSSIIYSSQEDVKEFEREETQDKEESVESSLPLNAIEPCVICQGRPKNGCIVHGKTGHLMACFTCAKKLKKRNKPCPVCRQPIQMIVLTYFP

SMILES	Δψm dissipation vs control (U87MG cells [1]) [%]	Δψm dissipation vs control [4] [%]	mRNA levels of p53 target genes (MDM2 and p21) [5]	Ki (TSPO) [nM]	concentration at which p53 accumulation became significant [7] [µM]	Δψm dissipation (U87MG cells [1])	IC50 [9] [nM]	other results
CCOC(=O)[C@@H](Cc1ccccc1)NC(=O)[C@H](CC(C)C)NC(=O)C(=O)c1c(-c2ccccc2)[nH]c2ccccc12 [compound 1, (2-phenylindol-3-yl)glyoxyl-L-leucine-L-phenylalanine ethylester]	47.0 ± 3.4	20.0 ± 1.8	increase significantly	438 ± 35	5	–	–	phosphatidylserine externalization (early and late apoptosis) (U87MG cells [2]; 5 μM): significant phosphatidylserine externalization; actual concentration in MDM2/p53 NMR sample (sample precipitation) [3]: lower than 0.2 mM; increase of PUMA mRNA level ([5]; 16–24 h): approximately 4 fold; IC50 (U87MG cells [6]; Homo sapiens, U-87 MG, 24 h, read-out: IC50, U87MG cell survival): 2500 ± 400 nM; activity of the senescence marker β-galactosidase (U87MG cells [8]): no activity
COc1ccc(C2=N[C@@H](c3ccc(Cl)cc3)[C@@H](c3ccc(Cl)cc3)N2C(=O)N2CCNC(=O)C2)c(OC(C)C)c1 [Nutlin-3, reference compound]	–	–	–	–	–	only a marginal effect	–	induction of specific apoptotic parameters (Annexin V, PUMA mRNA) (U87MG cells [2]; 10 μM, 24 h): did not show any induction; effect on U87MG cell viability (U87MG cells [6]; 24 h): dose-dependent reduction
CCC(C)N(C)C(=O)c1cc2ccccc2c(-c2ccccc2Cl)n1 (stereo not shown) [PK11195]	–	–	–	–	–	significant Δψm dissipation	–	inhibition of cell viability vs control (U87MG cells [6]; 100 μM, 24 h, maximal effect): 52.0 ± 2.3%; concentration from which inhibition of cell viability is significant (U87MG cells [6]; 24 h): 10 µM
O=C1[C@@H]2CS[C@@]3(C(=O)Nc4ccccc43)N2C(=O)N1Cc1ccc(Cl)cc1 [ISA27, reference compound]	–	–	–	–	–	–	122 ± 14.5	–
CC(C)C[C@H](NC(=O)C(=O)c1c(-c2ccccc2)[nH]c2ccccc12)C(=O)N[C@H](Cc1ccccc1)C(=O)O [compound 7, (2-phenylindol-3-yl)glyoxyl-L-leucine-L-phenylalanine]	60.1 ± 3.2	43 ± 3.1	increase significantly	759 ± 56	5	–	202 ± 21.2	p53 release from MDM2/p53 complex (W23 peak appears) [10]: complete p53 release; IC50 (U87MG cells [6]; Homo sapiens, U-87 MG, 24 h; read-out: IC50, U87MG cell survival): 2900 ± 500 nM
